Test results reported in patent US20100098631A1, “Novel-2-Heteroaryl Substituted Indoles 695” (ASTRAZENECA AB, priority 2007, published 2010).

What follows are compounds tested against T1, synthetic Aβ 1-40 (Homo sapiens, UniProt P05067) (assay: Competition binding assay ([3H]PIB as radioligand)). Settings: [3H]PIB 2.7 nM as radioligand, synthetic Aβ 1-40, phosphate buffer pH 7.5, 30 min room temperature; read-out: IC50 in the competion binding assay.
T1 construct: using synthetic Aβ 1-40 in 2.7 nM of [^3H]PIB
Description: Competition binding was performed in 384-well FB filter plates using synthetic Aβ 1-40 in 2.7 nM of [^3H]PIB (or another ^3H-labeled radioligand when so mentioned) in phosphate buffer at pH 7.5, by adding various concentrations of non-radioactive compounds originally dissolved in DMSO. The binding mixture was incubated for 30 min at room temperature, followed by vacuum filtration, and subsequently by washing twice with 1% Triton-X100. Scintillation fluid was thereafter added to the collected Aβ 1-40 on the filter plate, and the activity of the bound remaining radioligand ([^3H]PIB or another ^3H-labeled radioligand) was measured using 1450 Microbeta from PerkinElmer. Specific binding was determined according to the competion binding assay described herein. The determined IC50's in the competion binding assays (using [^3H]PIB as radioligand) of compounds of the present invention are shown in Table 1.

T1 sequence (P05067 672-711 limits assumed): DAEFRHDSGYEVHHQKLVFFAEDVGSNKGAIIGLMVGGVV

Compound	IC50
CNc1ccc(-c2cc3cc(O)ccc3[nH]2)cn1 [2-[6-(Methylamino)pyridin-3-yl]-1H-indol-5-ol]	736 nM
NC(=O)c1ccc(-c2cc3ccccc3[nH]2)cn1 [5-(1H-indol-2-yl)pyridine-2-carboxamide, 5-(1H-Indol-2-yl)pyridine-2-carboxamide]	143 nM
CNc1ccc(-c2cc3cc(F)ccc3[nH]2)cn1 [5-(5-Fluoro-1H-indol-2-yl)—N-methylpyridin-2-amine]	152 nM
CNc1ccc(-c2cc3cc(OC)ccc3[nH]2)cn1 [5-(5-Methoxy-1H-indol-2-yl)—N-methylpyridin-2-amine]	201 nM
COC(=O)c1ccc(-c2cc3cc(O)ccc3[nH]2)nc1 [6-(5-Hydroxy-1H-indol-2-yl)-Nicotinic Acid Methyl Ester]	140 nM

Continued, values first:

IC50	Compound
141 nM	COC(=O)c1ccc(-c2cc3cc(OC)ccc3[nH]2)nc1 [Methyl 6-(5-methoxy-1H-indol-2-yl)-nicotinate]
5370 nM	CC(C)(C)OC(=O)n1c(-c2ccc(C(N)=O)nc2)cc2cc(F)ccc21 [tert-Butyl 2-(6-carbamoylpyridin-3-yl)-5-fluoro-1H-indole-1-carboxylate]
